The text below walks through data of article PMC8216263 (Pharmaceutical Biology, 2021).

For series [1] the following is noted: rats, ref Ma et al. 2016, cited from earlier work.
The nature of series [2]: Stability of GA and PCA in quality control samples (biological matrix). In kind it is physicochemical, human. As to conditions: for Long-term Stability: 3 months at −80 °C; for Post-preparative Stability: 24 h at 4 °C, n = 3; for Bench-top Stability: 24 h at 25 °C. How it is done: The analytical method’s validation was conducted according to the FDA’s Bio-analytical Method Validation guidance (USFDA [2018]). Blank samples were obtained from six subjects for selectivity. The calibration curves were assessed by plotting the peak response ratio against the nominal concentrations of GA (1.00, 2.00, 10.0, 40.0, 100, 200, 320 and 400 μg/L) and PCA (0.50, 1.00, 5.00, 20.0, 50.0, 100, 160 and 200 μg/L). The low, medium and high QC concentrations were 3.00, 60.0 and 300 μg/L and 1.50, 30.0 and 150 μg/L for GA and PCA, respectively. Intra- and inter-day accuracy and precision were measured using six replicates of QCs in three separate batches. QCs’ acceptance criteria were ± 15% SD of nominal values, and the precision was ± 15% RSD, except for LLOQ ± 20% SD. The matrix effect and recovery were investigated using six lots of blank matrix from individual sources. Stability was assessed by spiking low and high QCs in blank samples using four conditions: for post-preparative stability (24 h at 4 °C), bench-top stability (24 h at 25 °C), long-term stability (3 months at −80 °C) and freeze-thaw stability (for three cycles).

The target in another series is T1, BCRP (Homo sapiens, UniProt Q9UNQ0).
T1 sequence (Q9UNQ0 1-655): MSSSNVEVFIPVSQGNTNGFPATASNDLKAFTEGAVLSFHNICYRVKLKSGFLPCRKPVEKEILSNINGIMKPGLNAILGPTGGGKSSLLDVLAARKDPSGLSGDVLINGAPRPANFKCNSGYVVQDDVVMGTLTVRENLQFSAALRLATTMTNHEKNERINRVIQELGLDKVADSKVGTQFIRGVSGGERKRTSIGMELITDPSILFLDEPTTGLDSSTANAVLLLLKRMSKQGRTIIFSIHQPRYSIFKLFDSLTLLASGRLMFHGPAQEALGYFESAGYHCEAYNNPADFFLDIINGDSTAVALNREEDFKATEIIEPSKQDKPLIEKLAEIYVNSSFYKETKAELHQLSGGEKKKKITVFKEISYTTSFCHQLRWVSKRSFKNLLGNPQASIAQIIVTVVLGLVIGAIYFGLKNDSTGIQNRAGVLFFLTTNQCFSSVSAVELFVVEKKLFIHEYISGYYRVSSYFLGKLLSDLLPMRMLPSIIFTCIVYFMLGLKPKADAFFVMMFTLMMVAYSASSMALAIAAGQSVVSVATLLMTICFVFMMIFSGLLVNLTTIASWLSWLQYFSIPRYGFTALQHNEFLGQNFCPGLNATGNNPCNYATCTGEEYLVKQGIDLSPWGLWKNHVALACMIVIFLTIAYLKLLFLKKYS
Briefly: Inhibition of BCRP-mediated lucifer yellow efflux in MDCK-BCRP cells. In kind it is cell-based. The conditions noted are these: for inhibitory effect on efflux of BCRP-mediated lucifer yellow: GA 50–5000 μg/L, PCA 10–1000 μg/L. An excerpt: The human multidrug resistance protein (MDR)1-transfected Madin–Darby Canine Kidney (MDCK) cells, human breast cancer resistance protein (BCRP)-transfected MDCK cells, human organic anion transporter (OAT)1-transfected MDCK cells, OAT3-transfected second portion of proximal tubule (S2) cells, human organic cation transporter (OCT)2-transfected S2 cells, human organic anion transporting polypeptide (OATP)1B1-transfected human embryonic kidney 293 (HEK293) cells and their MOCK cells were kindly provided by Japan Fuji Biomedical Co., Ltd. (Osaka, Japan). Cells were cultured in DMEM supplemented with 10% FBS, 100 units/mL penicillin and 100 […]. All cells were incubated in a humidified atmosphere of 95% air and 5% CO2 at 37 °C. A solution of 0.25% trypsin-EDTA was used to detach the cells from flasks. Cell culture flasks, 24-well cell culture plates, and transwell polycarbonate inserts (12 mm diameter, 0.4 μm pore size) were purchased from Corning Co-star Corp. (Bedford, MA).
Inhibitory effects of GA and PCA on efflux transporters MDR1 and BCRP were investigated with the fluorogenic substrates rhodamine 123 (10 µM) and lucifer yellow (10 µM), respectively. The positive control inhibitors of MDR1 and BCRP were verapamil (10 µM) and cyclosporine (20 µM), respectively. The efflux experiments were adapted from previously reported methods with minor modifications (Reznicek et al. [2017]). Briefly, MDCK-MDR1, MDCK-BCRP and MDCK-mock cells were trypsinized and uniformly suspended in the designated volume of HBSS to provide a density of 4.0 × 10^5 cells/mL. For 0.5 mL of cell suspension and 1.5 mL of HBSS buffer medium were added in the apical and basolateral compartments of 12-well Transwell plates. After cultivation for 7 d, cells were washed twice and equilibrated for 30 min at 37 °C with the pre-warmed HBSS buffer. […] Fluorescence was measured at 485 nm (excitation) and 546 nm (emission) for rhodamine 123, and 425 nm (excitation) and 528 nm (emission) for Lucifer yellow. […]

[3] abbreviates: high QC (GA 300.0, PCA 150.0 μg/L).
Setting [4] is: low QC (GA 3.00, PCA 1.50 μg/L).

For the compound `O=C(O)c1cc(O)c(O)c(O)c1` [GA, gallic acid], the “concentration in rat kidney tissue” value in series [1] was 1218 ng/g. Besides, in series [2] (setting [3]), the “Long-term Stability” value came out at 93.68%, the “Post-preparative Stability” value was found to be 94.37%, the “Bench-top Stability” value was 94.81% and the “Three freeze-thaw cycles Stability” value was 93.17%. In series [2] (setting [4]), the “Long-term Stability” value is reported as 99.70%, the “Post-preparative Stability” value was 88.48%, the “Bench-top Stability” value came to 98.11% and the “Three freeze-thaw cycles Stability” value was determined as 85.89%. On BCRP, the “inhibitory effect on efflux of BCRP-mediated lucifer yellow” value was “no significant inhibitory effect”.
For `O=C(O)c1ccc(O)c(O)c1` [PCA, protocatechuic acid], the “unchanged amount that survived the metabolism, % of the total intake” value in series [1] (urinary excretion) is on record as about 15.7%. Also, in series [2] (setting [3]), the “Long-term Stability” value is on record as 93.67%, the “Post-preparative Stability” value stood at 96.93%, the “Bench-top Stability” value is recorded as 95.44% and the “Three freeze-thaw cycles Stability” value is 94.22%. In addition, in series [2] (setting [4]), the “Long-term Stability” value is recorded as 99.04%, the “Post-preparative Stability” value is given as 90.60%, the “Bench-top Stability” value turned out to be 97.69% and the “Three freeze-thaw cycles Stability” value was found to be 87.22%. Also, the “inhibitory effect on efflux of BCRP-mediated lucifer yellow” value on BCRP is “no significant inhibitory effect”. In addition, the “efflux of lucifer yellow compared with the control” value at BCRP (relatively high concentrations) was “significant increase”.
